US20250352550A1, “SUBSTITUTED FUROPYRIDINES FOR THERAPEUTIC USE” (MASARYKOVA UNIVERZITA, priority 2022, published 2025)
Each block holds one compound with its values, some of them ahead of it.

Columns and labels:
Assay type in all cases: biochemical
[1] = target: T1, DDR1 (Homo sapiens, UniProt Q08345); assay: HotSpot radiometric kinase assay (Reaction Biology), DDR1; conditions: 200 nM kinase, substrate IRS1tide 20 μM, 33P-ATP, 120 minutes at room temperature
T1 construct: purchased Reaction Biology
Method in brief: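 Radiometric filter-binding assay: kinase and substrate in 20 mM HEPES pH 7.5, 10 mM MgCl2, 1 mM EGTA, 2 mM DTT, 1% DMSO. Reaction started with ^33P-ATP (0.01 μCi/μL final), run 120 minutes at room temperature. Activity expressed as percent of DMSO control; IC50 from curve fits.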

[2] = target: T2, KHS/MAP4K5 (Homo sapiens, UniProt Q9Y4K4); assay: HotSpot radiometric kinase assay (Reaction Biology), KHS/MAP4K5; conditions: 1.5 nM kinase, substrate MBP 20 μM, 33P-ATP, 120 minutes at room temperature
T2 construct: purchased Reaction Biology
Procedure: The compounds were profiled in the HotSpot radiometric assays (Reaction Biology).
Briefly, • 1. Substrate indicated in Table 1 was dissolved in freshly prepared reaction buffer (20 mM HEPES (pH 7.5), 10 mM MgCl2, 1 mM EGTA, 0.01% Brij35, 0.02 mg/ml BSA, 0.1 mM Na3VO4, 2 mM DTT, 1% DMSO) at the concentration indicated in Table 1. • 2. Corresponding kinase (concentration indicated in Table 1) was added and the mixture was gently mixed. • 3. Tested compound dissolved in DMSO was added into the kinase reaction mixture. • 4. ^33P-ATP (specific activity 0.01 μCi/μL final) was added into the reaction mixture to initiate the reaction. • 5. The kinase reaction was incubated for 120 minutes at room temperature. • 6. Reaction mixture was spotted onto P81 ion exchange paper (Whatman K 3698-915). • 7. The filters were extensively washed with […]. • 7. The radioactive phosphorylated substrate remaining on the filter paper was measured.
Kinase activity data were expressed as the percent remaining kinase activity in tested samples compared to the vehicle (DMSO) reactions. IC50 values and curve fits were obtained using Prism4 Software (GraphPad).
Table 2 summarizes the inhibitory activities of indicated compounds tested in the in vitro kinase assays described above.

[3] = target: T3, FLT3 (Homo sapiens, UniProt P36888); assay: HotSpot radiometric kinase assay (Reaction Biology), FLT3; conditions: 4 nM kinase, substrate ABLtide 20 μM, 33P-ATP, 120 minutes at room temperature
T3 construct: purchased Reaction Biology
T3 sequence (P36888 27-993): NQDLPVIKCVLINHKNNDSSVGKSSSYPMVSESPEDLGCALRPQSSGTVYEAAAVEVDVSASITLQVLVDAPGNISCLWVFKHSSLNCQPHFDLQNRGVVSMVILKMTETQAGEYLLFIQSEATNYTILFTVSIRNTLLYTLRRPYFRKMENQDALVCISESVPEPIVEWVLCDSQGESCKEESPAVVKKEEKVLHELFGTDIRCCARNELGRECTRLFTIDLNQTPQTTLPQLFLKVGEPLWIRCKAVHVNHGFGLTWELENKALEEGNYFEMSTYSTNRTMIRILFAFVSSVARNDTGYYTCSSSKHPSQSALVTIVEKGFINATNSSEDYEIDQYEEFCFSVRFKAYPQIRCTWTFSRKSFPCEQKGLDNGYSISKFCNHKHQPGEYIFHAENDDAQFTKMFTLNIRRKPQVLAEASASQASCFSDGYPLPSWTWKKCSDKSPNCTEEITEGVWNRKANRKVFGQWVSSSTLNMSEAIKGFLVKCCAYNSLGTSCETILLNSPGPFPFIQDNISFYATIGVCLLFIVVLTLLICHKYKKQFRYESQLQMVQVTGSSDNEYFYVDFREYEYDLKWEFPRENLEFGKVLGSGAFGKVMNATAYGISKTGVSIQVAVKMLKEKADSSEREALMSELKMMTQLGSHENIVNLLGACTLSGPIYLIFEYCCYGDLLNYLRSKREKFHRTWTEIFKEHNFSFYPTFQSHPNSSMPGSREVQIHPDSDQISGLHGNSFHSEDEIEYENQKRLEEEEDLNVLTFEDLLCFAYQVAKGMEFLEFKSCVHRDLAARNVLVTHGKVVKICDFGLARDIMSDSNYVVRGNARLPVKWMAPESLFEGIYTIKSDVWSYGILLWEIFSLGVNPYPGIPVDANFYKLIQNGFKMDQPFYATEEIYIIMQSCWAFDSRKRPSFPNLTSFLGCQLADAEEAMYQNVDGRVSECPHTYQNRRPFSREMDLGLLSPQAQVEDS
Method in brief: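 Radiometric filter-binding assay with kinase and substrate in HEPES pH 7.5 buffer containing MgCl2, EGTA, Brij35, BSA, Na3VO4, DTT and 1% DMSO, started with ^33P-ATP and run 120 min at room temperature. Phosphorylated substrate on P81 paper counted; activity expressed as % of DMSO control, IC50 from curve fits.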

T2 sequence (Q9Y4K4 whole entry): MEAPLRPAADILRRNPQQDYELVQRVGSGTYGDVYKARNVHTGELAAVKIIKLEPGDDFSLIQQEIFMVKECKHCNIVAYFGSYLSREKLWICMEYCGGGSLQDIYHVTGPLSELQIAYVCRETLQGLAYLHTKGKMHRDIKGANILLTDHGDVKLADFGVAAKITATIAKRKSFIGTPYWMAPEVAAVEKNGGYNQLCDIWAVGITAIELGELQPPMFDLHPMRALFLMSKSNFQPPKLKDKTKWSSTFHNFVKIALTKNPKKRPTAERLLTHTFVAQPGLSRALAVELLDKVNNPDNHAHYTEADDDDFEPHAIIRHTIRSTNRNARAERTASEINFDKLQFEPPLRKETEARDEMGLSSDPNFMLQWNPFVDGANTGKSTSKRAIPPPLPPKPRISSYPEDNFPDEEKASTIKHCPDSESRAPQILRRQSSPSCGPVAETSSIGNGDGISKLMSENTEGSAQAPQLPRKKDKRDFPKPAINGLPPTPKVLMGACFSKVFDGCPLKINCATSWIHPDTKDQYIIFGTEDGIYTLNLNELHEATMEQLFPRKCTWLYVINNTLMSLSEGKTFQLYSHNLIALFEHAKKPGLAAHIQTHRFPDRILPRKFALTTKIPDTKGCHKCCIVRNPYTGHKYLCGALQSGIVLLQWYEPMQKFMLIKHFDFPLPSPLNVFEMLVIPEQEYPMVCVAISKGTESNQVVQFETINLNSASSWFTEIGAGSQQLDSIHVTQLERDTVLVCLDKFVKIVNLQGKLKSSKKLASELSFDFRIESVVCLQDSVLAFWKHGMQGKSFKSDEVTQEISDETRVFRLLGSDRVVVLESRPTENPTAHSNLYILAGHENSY
T1 sequence (Q08345 19-913): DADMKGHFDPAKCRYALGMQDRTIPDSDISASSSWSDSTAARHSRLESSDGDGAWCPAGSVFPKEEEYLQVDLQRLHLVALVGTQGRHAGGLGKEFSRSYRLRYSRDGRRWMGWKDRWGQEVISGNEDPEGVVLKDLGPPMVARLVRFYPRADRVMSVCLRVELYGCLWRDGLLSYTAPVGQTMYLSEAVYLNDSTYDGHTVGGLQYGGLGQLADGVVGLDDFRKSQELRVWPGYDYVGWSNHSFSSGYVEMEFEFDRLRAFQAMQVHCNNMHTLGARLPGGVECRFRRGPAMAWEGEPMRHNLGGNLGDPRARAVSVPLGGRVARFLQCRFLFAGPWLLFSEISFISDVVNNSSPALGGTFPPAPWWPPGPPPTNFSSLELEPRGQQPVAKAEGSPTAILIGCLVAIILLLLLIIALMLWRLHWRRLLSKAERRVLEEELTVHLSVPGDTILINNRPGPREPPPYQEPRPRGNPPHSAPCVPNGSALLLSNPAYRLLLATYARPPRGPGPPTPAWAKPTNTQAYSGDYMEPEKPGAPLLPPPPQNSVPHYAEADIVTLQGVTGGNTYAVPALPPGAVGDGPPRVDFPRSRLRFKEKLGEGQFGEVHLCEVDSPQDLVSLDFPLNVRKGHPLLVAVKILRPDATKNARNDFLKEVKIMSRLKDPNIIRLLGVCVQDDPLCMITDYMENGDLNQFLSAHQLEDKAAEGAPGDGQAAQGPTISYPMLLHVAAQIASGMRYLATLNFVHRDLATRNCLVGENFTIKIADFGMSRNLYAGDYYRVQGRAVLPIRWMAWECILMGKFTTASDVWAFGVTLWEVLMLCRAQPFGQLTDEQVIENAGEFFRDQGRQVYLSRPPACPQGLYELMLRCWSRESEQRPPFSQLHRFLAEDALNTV

SMILES: CC(=O)OCc1cccc(-c2coc3cc(-c4ccc(N5CCN(C)CC5)cc4)cnc23)c1 [Preparative Example 94, 3-(6-(4-(4-methylpiperazin-1-yl)phenyl)furo[3,2-b]pyridin-3-yl)benzyl acetate]
IC50 [1]: 155 nM | IC50 [2]: 641 nM | IC50 [3]: 77 nM

SMILES: c1cc(SC2CCC2)cc(-c2coc3cc(-c4ccc(N5CCNCC5)cc4)cnc23)c1 [Preparative Example 164, 3-(3-(cyclobutylthio)phenyl)-6-(4-(piperazin-1-yl)phenyl)furo[3,2-b]pyridine]
IC50 [1]: 361 nM | IC50 [2]: 737 nM | IC50 [3]: 151 nM

SMILES: Fc1cccc(-c2coc3cc(-c4ccc(N5CCNCC5)cc4)cnc23)c1 [Preparative Example 170, 3-(3-fluorophenyl)-6-(4-(piperazin-1-yl)phenyl)furo[3,2-b]pyridine]
IC50 [1]: 120 nM | IC50 [2]: 889 nM | IC50 [3]: 31 nM

SMILES: CN1CCN(c2ccc(-c3cnc4c(Oc5ccccc5)coc4c3)cc2)CC1 [Preparative Example 229, 1-methyl-4-(4-{3-phenoxyfuro[3,2-b]pyridin-6-yl}phenyl)piperazine]
IC50 [1]: 308 nM | IC50 [2]: 284 nM | IC50 [3]: 729 nM

SMILES: NCc1cccc(-c2coc3cc(-c4ccc(N5CCNCC5)cc4)cnc23)c1 [Preparative Example 87, (3-(6-(4-(piperazin-1-yl)phenyl)furo[3,2-b]pyridin-3-yl)phenyl)methanamine]
IC50 [1]: 301 nM | IC50 [2]: 456 nM | IC50 [3]: 62 nM

SMILES: CN1CCN(c2ccc(-c3cnc4c(-c5cccc(CO)c5)coc4c3)cc2)CC1 [Preparative Example 90, (3-(6-(4-(4-methylpiperazin-1-yl)phenyl)furo[3,2-b]pyridin-3-yl)phenyl)methanol]
IC50 [1]: 163 nM | IC50 [2]: 394 nM | IC50 [3]: 24 nM

The next compounds have a lower IC50 [1] than those just listed; values first:

IC50 [1]: 64 nM | IC50 [2]: 433 nM | IC50 [3]: 100 nM
SMILES: Cn1cc(-c2coc3cc(-c4ccc(N5CCNCC5)cc4)cnc23)cn1 [Preparative Example 34, 3-(1-methyl-1H-pyrazol-4-yl)-6-(4-(piperazin-1-yl)phenyl)furo[3,2-b]pyridine]

IC50 [1]: 42 nM | IC50 [2]: 675 nM | IC50 [3]: 20 nM
SMILES: Fc1ccc(-c2coc3cc(-c4ccc(N5CCNCC5)cc4)cnc23)cc1 [Preparative Example 51, 3-(4-fluorophenyl)-6-(4-(piperazin-1-yl)phenyl)furo[3,2-b]pyridine]

IC50 [1]: 27 nM | IC50 [2]: 756 nM | IC50 [3]: 56 nM
SMILES: CN1CCN(c2ccc(-c3cnc4c(-c5cc(F)cc(C(N)=O)c5)coc4c3)cc2)CC1 [Preparative Example 219, 3-fluoro-5-{6-[4-(4-methylpiperazin-1-yl)phenyl]furo[3,2-b]pyridin-3-yl}benzamide]
